Assay results published in patent US20220315895A1, “METHODS OF MAKING OLIGOPOTENT AND UNIPOTENT PRECURSORS” (Transfusion Health, LLC, priority 2019, published 2022).

Key:
CD56+ NK lineage cells = experiment: NK-cell Maturation Culture (Example 41); format: cell-based, human; conditions: for % Mature cells: CD3−/CD19−/CD56+ of Live / % Mature cells: CD16+ of Live/CD3−/CD19−/CD56+ / % Mature cells: CD94+ of Live/CD3−/CD19−/CD56+ / % Mature cells: CD161+ of Live/CD3−/CD19−: NK, +Formula I-expanded CD34+ cells
Procedure: Following 14 days in Lymphoid Progenitor Differentiation Cultures, cells were placed into T- and NK-cell Maturation Cultures.
For NK-cell Maturation Cultures, cells from L Diff Cultures were plated at 25,000 cells per well in TC-treated 48-well plates with 250 μl of NK-cell Differentiation Medium, comprising StemSpan SFEM II medium with StemSpan NK Cell Differentiation Supplement and UM171 (STEMCELL Technologies), prepared according to the manufacturer's instructions, except substituting UM171 at 100 nM for the 1 μM UM729 called for in the protocol.
Following 4 days of culture, NK- and T-cell Maturation Cultures' medias were replenished by adding an equal volume of the same culture media added on day 14. At days 21 and 25 of NK- or T-cell Maturation Cultures, half-media changes were performed by removing half of the total volume of media without disturbing cells and adding media freshly prepared as on day 14.
Following 7 and 14 days in NK- and T-cell Maturation Culture (21 and 28 days from initiation of Lymphoid Differentiation Culture, respectively), cells were stained with antibodies to CD56, CD3, CD161, CD94, and CD16 and analyzed via flow cytometry to quantify T and NK lineage phenotypes.
“Adult Peripheral Blood Unit Equivalents per CBU” was calculated by multiplying each condition's Scaled Output (per CD34+ cell) by 10^6, a conservative estimate of the number of CD34+ cells in an umbilical cord blood unit, then dividing that quantity by the number of CD56+, CD3+ or CD8+ cells typically found in a unit of donated adult peripheral blood: 5×10^7 (CD56+), 10^9 (CD3+) or 3×10^8, according to Invitrogen (https://assets.thermofisher.com/TFS-Assets/LSG/brochures/I-076357%20cell%20count%20table%20topp_WEB.pdf).

[1] = system: expanded cord blood CD34+ cells, granulocyte (CD15+/CD14−) and monocyte (CD14+/CD15−) lineage; experiment: Myeloid (granulocyte and monocyte) Differentiation Culture after Expansion Culture (Example 38); format: cell-based, human
Procedure: At days 21 and 63, CD34+ enriched cells were placed into Differentiation Cultures, described below.
Differentiation cultures were initiated using Erythroid, Myeloid (granulocyte and monocyte), and Megakaryocyte HemaTox kits from STEMCELL technologies following the manufacturer's instructions. In brief, lineage media was prepared by adding cytokine cocktails for erythrocyte (SCF, IL-3, and EPO), myeloid (i.e. mixed granulocyte/monocyte, SCF, TPO, G-CSF, and GM-CSF) or megakaryocyte (SCF, IL-6, IL-9 and TPO) lineage differentiation to their respective kits' media, then adding approximately 30-100 CD34+ cells for erythroid or myeloid cultures, or 300-1000 CD34+ cells for megakaryoid cultures. Exact cell numbers plated were quantified for later analysis. All incubations for Differentiation Culture took place at 3% oxygen (controlled by nitrogen) and 5% CO2.
Following seven days of erythroid or myeloid cultures, or ten days for megakaryoid cultures, differentiated cell output was quantified using flow cytometry. Erythroid output was quantified using anti-CD71 and anti-CD235a antibodies, and megakaryocyte lineage output was quantified using anti-CD41 and anti-CD42b antibodies. Granulocyte and monocyte lineage outputs were assessed in tandem, using CD14 and CD15 antibodies, with granulocyte lineage cells being CD15+/CD14−, and monocyte lineage cells being CD14+/CD15−.
A number of quantities were calculated to assess the effect of expansion of CD34+ cells in the +Formula I Condition on the output of lineage differentiated cells. “Per-Assayed-CD34+ Cell Output” describes the output of differentiated cells per CD34+ cell placed into Differentiation Culture, and is calculated by dividing the total number of lineage-positive cells by the input CD34+ cell number quantified at Differentiation Culture initiation at day 1, 21, or 63. “Per-expanded-day-1-CD34+ cell output” describes the number of differentiated cells of a given lineage that may be produced from a single CD34+ cell following both Expansion Cell Culture (if expanded) followed by Differentiation Culture, and is calculated by multiplying Per-Assayed-CD34+ Cell Output by the fold expansion of CD34+ cells from day 1 to the day of analysis, either day 21 or day 63. […] We calculated therapeutic units for granulocyte precursors, using 50 billion (5×10^10) cells per dose as a conservative benchmark (Valentini, C. G., Farina, F., Pagano, L., and Teofili, L. (2017). Granulocyte Transfusions: A Critical Reappraisal. Biol. Blood Marrow Transplant. 23, 2034-2041). […]

[2] = +Formula I expansion to day 21, then 7 days differentiation
[3] = +Formula I expansion to day 63, then 7 days differentiation

With `CC(C)(C)C(=O)Nc1ccc2c(c1)C(O)c1ccccc1-2` (stereo not shown) [Compound 1.010] the “CD56+ NK cells, of total live cells” value (CD56+ NK lineage cells; CD34+ cells first expanded for 14 days in +Formula I conditions) was 93%, the “% Mature cells: CD3−/CD19−/CD56+ of Live” value (CD56+ NK lineage cells; Lymphoid Diff day 21) was 91% and the “% Mature cells: CD16+ of Live/CD3−/CD19−/CD56+” value (CD56+ NK lineage cells; Lymphoid Diff day 21) was 31%. For the same compound, the “% Mature cells: CD94+ of Live/CD3−/CD19−/CD56+” value (CD56+ NK lineage cells; Lymphoid Diff day 21) was 7.8%, the “% Mature cells: CD161+ of Live/CD3−/CD19−” value (CD56+ NK lineage cells; Lymphoid Diff day 21) was 81% and the “% Mature cells: CD3−/CD19−/CD56+ of Live” value (CD56+ NK lineage cells; Lymphoid Diff day 28) was 95%. The “% Mature cells: CD16+ of Live/CD3−/CD19−/CD56+” value (CD56+ NK lineage cells; Lymphoid Diff day 28) was 16%, the “% Mature cells: CD94+ of Live/CD3−/CD19−/CD56+” value (CD56+ NK lineage cells; Lymphoid Diff day 28) was 3.5% and the “% Mature cells: CD161+ of Live/CD3−/CD19−” value (CD56+ NK lineage cells; Lymphoid Diff day 28) was 89%. The “fold increase of per-expanded-day-1-CD34+ cell output, monocyte lineage, over uncultured cells” value [1, 2] was 800 fold, the “fold increase of per-expanded-day-1-CD34+ cell output, total granulocyte lineage, over uncultured cells” value [1, 2] was 370 fold and the “fold increase of per-expanded-day-1-CD34+ cell output, monocyte lineage, over uncultured cells” value [1, 3] was 108,000 fold. The “fold increase of per-expanded-day-1-CD34+ cell output, total granulocyte lineage, over uncultured cells” value [1, 3] was 67,000 fold.
